Two compounds from patent publication US20250034575A1, “OLIGONUCLEOTIDES FOR DGAT2, FASN, OPN, AND NOX4 MODULATIONS” (UNIVERSITY OF MASSACHUSETTS, priority 2023, published 2025) can be followed below.

One series has as its system LX2 human stellate cells. The series can be described thus: Tgf-β driven activation of LX2 human stellate cells with Fasn inhibitor. The series is classed as cell-based. How it is done:
In vitro screening of LX2 human stellate cells was executed by plating 500,000 cells/well in 6-well plates overnight at 37° C., 5% CO2 in 0% FBS DMEM medium (11885-076, Gibco). Following a 4-hour pre-treatment with 1 nM or 100 nM Fasn inhibitor (TVB-3664-S8563, Selleck Chemicals), stellate cell activation was initiated by adding recombinant human Tgf-β (240-B-002, R & D Systems) for a 5 ng/mL final concentration. After 48 hours, protein and mRNA were isolated from the cells and further analysis was performed.
Frozen liver tissue punches (25-50 mg) were homogenized in TRIzol (15596018, Thermo Scientific) using the Qiagen TissueLyser II. Chloroform was added to the homogenate and centrifuged for 15 minutes at maximum speed. The clear upper layer was added to an equal volume of 100% isopropanol and incubated for 1 h at 4° C. After 10 min of centrifugation at maximum speed, the supernatant was discarded, and 70 to 75% ethanol was added to wash the pellet. After 5 min of centrifugation at maximum speed, the supernatant was discarded, and the pellet was briefly dried in the hood prior to resuspension in double-distilled water. RNA concentration was measured via the Thermo Scientific NanoDrop2000 spectrophotometer. Complementary DNA was then synthesized from 1 μg of total RNA using iScript cDNA Synthesis Kit (1708890, Bio-Rad) and Bio-Rad T100 thermocycler. Quantitative RT-PCR was performed using iQ SybrGreen Supermix (4368708, Applied Biosystems) on the Bio-Rad CFX96 C1000 Touch Thermal Cycler and analyzed.
(§1) In the analysis of protein expression, cell lysates were homogenized in a RIPA buffer (25 mM Tris, pH 7.4 0.15 M NaCl 0.1% Tween 20) with 1:100 protease inhibitor (78442, Thermo Scientific). The lysates were denatured by boiling, separated on a 4 to 15% SDS/polyacrylamide gel electrophoresis gel (567-1094, Bio-Rad), and transferred to a nitrocellulose membrane (1704159, Bio-Rad). The membrane was blocked using TBS-T with 5% BSA for 1 hour at room temperature and incubated using p-SMAD3 (ab52903, Abcam), type I collagen (1310-30, Southern Biotech), and GAPDH (5174, Cell Signaling). The blot was further washed in TBS-T and incubated at room temperature with its corresponding secondary antibody for 30 minutes. Following another wash, the blot was incubated with ECL (32106, Thermo Scientific) and visualized with the ChemiDox XRS+ image-forming system.
To investigate the role of palmitate production in stellate cell activation, LX2 human stellate cells were treated with a validated, potent and specific small molecule inhibitor of Fasn, TVB-3664, at a final concentration of either 1 nM or 100 nM for 4 hours. Cells were then subjected to 5 ng/mL Tgf-β, a strong stimulator of stellate cell activation. Forty-eight hours later, the morphology of activated stellate cells, with increased cell size and elongation of spindle-like structures, was easily observed in Tgf-β treated cells.

The next series concerns FASN. As to the kind of experiment: Cholesterol conjugated Fasn-2314 in Tgfb activated Lx2 cells, Western blotting. The series is classed as cell-based, human. As to conditions: 1.5 uM, Tgfb 5 ng/ml. As to the method:
as §1
Moreover, the protein level of Smad3 was also measured for untreated control, cholesterol conjugated non-targeting control, and cholesterol conjugated Fasn-2314. 1×10^6 of human Lx2 cells were plated in 10 cm2 plates and treated with 1.5 uM cholesterol conjugated Fasn-2314. 24 hrs post treatment Lx2 cells were activated with Tgfb (5 ng/ml) to induce fibrotic phenotype. 48 hrs post activation cells were harvested and processed for Western blotting analysis.
Background: Immunoblotting shows a protein as a band on a membrane.

[1] abbreviates: LX2 cells, 1 nM or 100 nM, 4 hours, then 5 ng/mL Tgf-β, 48 hours.

`COCc1[nH]c(C(F)(F)F)nc1-c1cc(C(=O)N2CC(c3ccc(C#N)cc3)C2)c(C)cc1C` [TVB-3664]: in the series on LX2 human stellate cells (setting [1]), the “Tgf-β-induced type 1 collagen protein expression” value is reported as “blocked”, the “mRNA levels of Acta2” value is on record as “reduction”, the “mRNA levels of Col1a1” value was “reduction” and the “morphological change of activated stellate cells” value was “severely inhibited”. For the same compound, the “phosphorylated SMAD3 protein” value in the series with LX2 human stellate cells (setting [1]) is listed as “reduced”. Also, in the series with LX2 human stellate cells (Tgf-β activated LX2 cells), the Cpt1a gene expression result was “reduction”, the Hsp47 gene expression result is listed as “reduction”, the Nrf2 gene expression result was “remarkable upregulation” and the Pgc-1α gene expression entry is recorded as “remarkable upregulation”. For the same compound, in the series on LX2 human stellate cells (Tgf-β activated LX2 cells), the Pparα gene expression result is “remarkable upregulation”, the Sirt1 gene expression entry was “remarkable upregulation”, the anti-fibrotic effect result is “strong anti-fibrotic effect” and the “expression of Nox4” value was “reduction in expression”.
For the compound “FASN 2314: siRNA targeting human FASN; antisense SEQ ID NO: 56, TegChol sense SEQ ID NO: 57 (sense CCGAGUACAAUGUCAA; antisense UUGACAUUGUACUCGGCGGUU; sugars by position and backbone not given here; 2'-F/2'-OMe modifications not assigned, TegChol cholesterol on sense, further chemistry not fully specified)”, in the series on FASN, the “LC3II protein (autophagy)” value was “accumulation”; the “activation and collagen production in Tgfb treated stellate cells” value was “blunted”; the “p62 protein (autophagy)” value is “accumulation”; the “phosphorylation of SMAD3” value was “blunted”.
